# Assay results taken from PubChem BioAssay AID256 (DTP/NCI, 2004).
# “And” between values parts separate entries of the source, which are not always exact repeats. Equal values may be shown once. Inconclusive results and toxic doses are left out.
# Test system: CD2F1 mice, L1210 leukemia ip, survival T/C
# Experiment: NCI In Vivo Anticancer Drug Screen. Data for tumor model L1210 Leukemia (intraperitoneal) in CD2F1 (CDF1) mice
# Details: endpoint: mean survival time, higher = longer survival
# Summary of the method: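 Each value reflects a quotient of treated over vehicle control outcomes in mice with a transplanted tumor.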
# [1] = dose: 100.0 mg/kg/injection, schedule: Q01DX009 (ip), vehicle: saline with Tween-80
# [2] = dose: 200.0 mg/kg/injection, schedule: Q01DX009 (ip), vehicle: saline with Tween-80
# [3] = dose: 400.0 mg/kg/injection, schedule: Q01DX009 (ip), vehicle: saline with Tween-80
# [4] = dose: 100.0 mg/kg/injection, schedule: Q04DX002 (ip), vehicle: saline with Tween-80
# [5] = dose: 200.0 mg/kg/injection, schedule: Q04DX002 (ip), vehicle: saline with Tween-80
# [6] = dose: 400.0 mg/kg/injection, schedule: Q04DX002 (ip), vehicle: saline with Tween-80
# [7] = dose: 100.0 mg/kg/injection, schedule: Q04DX003 (ip), vehicle: saline with Tween-80
# [8] = dose: 200.0 mg/kg/injection, schedule: Q04DX003 (ip), vehicle: saline with Tween-80
# [9] = dose: 400.0 mg/kg/injection, schedule: Q04DX003 (ip), vehicle: saline with Tween-80
compound,measurement,setting,value
CCOC(=O)c1c(O)c(=O)[nH]c2ccccc12,T/C,"dose: 100.0 mg/kg/injection, schedule: Q01DX005 (ip), vehicle: saline with Tween-80",106 % of control
same,T/C,"dose: 200.0 mg/kg/injection, schedule: Q01DX005 (ip), vehicle: saline with Tween-80",97 % of control
same,T/C,"dose: 400.0 mg/kg/injection, schedule: Q01DX005 (ip), vehicle: saline with Tween-80",97 % of control
NC1=NCN(C2OC(COC(=O)c3ccccc3)C(OC(=O)c3ccccc3)C2OC(=O)c2ccccc2)C(=O)N1 (configuration not stated),T/C,"dose: 3.12 mg/kg/injection, schedule: Q01DX009 (ip), vehicle: saline",97 % of control and 108 % of control
same,T/C,"dose: 6.25 mg/kg/injection, schedule: Q01DX009 (ip), vehicle: saline",91 % of control and 102 % of control
same,T/C,"dose: 12.5 mg/kg/injection, schedule: Q01DX009 (ip), vehicle: saline",91 % of control and 100 % of control
same,T/C,"dose: 25.0 mg/kg/injection, schedule: Q01DX009 (ip), vehicle: saline",94 % of control and 97 % of control
same,T/C,"dose: 50.0 mg/kg/injection, schedule: Q01DX009 (ip), vehicle: saline",112 % of control and 100 % of control
same,T/C,"dose: 100.0 mg/kg/injection, schedule: Q01DX009 (ip), vehicle: saline",122 % of control and 108 % of control
same,T/C,"dose: 200.0 mg/kg/injection, schedule: Q01DX009 (ip), vehicle: saline",165 % of control
CC1(C)CC(=O)C(CSC(=O)c2ccccc2)C(=O)C1,T/C,"dose: 3.12 mg/kg/injection, schedule: Q01DX009 (ip), vehicle: Klucel (hydroxypropylcellulose) (HPC)",96 % of control and 100 % of control
same,T/C,"dose: 6.25 mg/kg/injection, schedule: Q01DX009 (ip), vehicle: Klucel (hydroxypropylcellulose) (HPC)",101 % of control and 105 % of control
same,T/C,"dose: 12.5 mg/kg/injection, schedule: Q01DX009 (ip), vehicle: Klucel (hydroxypropylcellulose) (HPC)",103 % of control and 104 % of control
same,T/C,"dose: 25.0 mg/kg/injection, schedule: Q01DX009 (ip), vehicle: Klucel (hydroxypropylcellulose) (HPC)",100 % of control and 105 % of control
same,T/C,"dose: 50.0 mg/kg/injection, schedule: Q01DX009 (ip), vehicle: Klucel (hydroxypropylcellulose) (HPC)",102 % of control and 106 % of control
same,T/C,"dose: 100.0 mg/kg/injection, schedule: Q01DX009 (ip), vehicle: Klucel (hydroxypropylcellulose) (HPC)",102 % of control
CN(C)N=Nc1cc(C(F)(F)F)cc(C(F)(F)F)c1,T/C,"dose: 25.0 mg/kg/injection, schedule: Q01DX009 (ip), vehicle: saline with Tween-80",104 % of control
same,T/C,"dose: 50.0 mg/kg/injection, schedule: Q01DX009 (ip), vehicle: saline with Tween-80",101 % of control
same,T/C,[1],98 % of control
same,T/C,[2],95 % of control
same,T/C,[3],104 % of control
CN(C)C(=O)c1ccccc1C(=O)c1ccccc1,T/C,[4],94 % of control
same,T/C,[5],87 % of control
same,T/C,[6],91 % of control
CN(Cc1cnc2nc(N)nc(N)c2n1)c1ccc(C(=O)NC(CCC(=O)O)C(=O)O)cc1Br (configuration not stated),T/C,"dose: 6.25 mg/kg/injection, schedule: Q01DX Z (ip), vehicle: saline",104 % of control
S=C=NCCCCCCN=C=S,T/C,"dose: 6.25 mg/kg/injection, schedule: Q04DX002 (ip), vehicle: saline",104 % of control
same,T/C,"dose: 12.5 mg/kg/injection, schedule: Q04DX002 (ip), vehicle: saline",98 % of control
same,T/C,"dose: 25.0 mg/kg/injection, schedule: Q04DX002 (ip), vehicle: saline",90 % of control and 102 % of control
same,T/C,"dose: 50.0 mg/kg/injection, schedule: Q04DX002 (ip), vehicle: saline",98 % of control
COc1ccccc1NC(=O)Oc1ccc(Cl)c(C)c1,T/C,[4],103 % of control
same,T/C,[5],103 % of control
same,T/C,[6],96 % of control
Fc1c(F)c(F)[c]([Ge]([c]2c(F)c(F)c(F)c(F)c2F)([c]2c(F)c(F)c(F)c(F)c2F)[c]2c(F)c(F)c(F)c(F)c2F)c(F)c1F,T/C,[1],97 % of control
same,T/C,[7],86 % of control
same,T/C,[2],92 % of control
same,T/C,[8],91 % of control
same,T/C,[3],91 % of control
same,T/C,[9],93 % of control
CCC(CCC(C)C1CCC2C3CC=C4CC(I)CCC4(C)C3CCC12C)C(C)C (configuration not stated),T/C,"dose: 100.0 mg/kg/injection, schedule: Q01DX001 (ip), vehicle: saline with Tween-80",90 % of control
same,T/C,"dose: 200.0 mg/kg/injection, schedule: Q01DX001 (ip), vehicle: saline with Tween-80",90 % of control
same,T/C,"dose: 400.0 mg/kg/injection, schedule: Q01DX001 (ip), vehicle: saline with Tween-80",94 % of control
C=CCN1/C(=C/C=C\c2sc3ccccc3[n+]2CC=C)Sc2ccccc21,T/C,"dose: 2.0 mg/kg/injection, schedule: Q04DX003 (ip), vehicle: saline",110 % of control
same,T/C,"dose: 4.0 mg/kg/injection, schedule: Q04DX003 (ip), vehicle: saline",115 % of control
CCC(CNCC(=O)O)(C(=O)O)C(=O)O,T/C,"dose: 12.5 mg/kg/injection, schedule: Q04DX002 (ip), vehicle: saline with Tween-80",104 % of control
same,T/C,"dose: 25.0 mg/kg/injection, schedule: Q04DX002 (ip), vehicle: saline with Tween-80",93 % of control
same,T/C,"dose: 50.0 mg/kg/injection, schedule: Q04DX002 (ip), vehicle: saline with Tween-80",111 % of control
Cc1cc(Cl)ccc1NC(=O)CCl,T/C,[1],93 % of control
same,T/C,[7],100 % of control
same,T/C,[2],88 % of control
same,T/C,[8],105 % of control
same,T/C,[3],96 % of control
same,T/C,[9],92 % of control
